These results are taken from ChEMBL document CHEMBL4400515, “Anti-parasitic activity of polyether ionophores” (Eur J Med Chem, 2019).

The test system of assay [1] is Cryptosporidium parvum. As to the kind of experiment: Antiparasitic activity against Cryptosporidium parvum GP-60 subtype 2a A15G2RI infected in human HCT8 cells assessed as inhibition of parasite development at 0.144 uM measured 27 hrs post infection by qPCR analysis. Type of assay: functional. The settings on record: HCT-8, 27 h. For orientation: Real-time PCR tracks product formation cycle by cycle.

The subject of assay [2] is Plasmodium vinckei petteri. As to the kind of experiment: Antimalarial activity against Plasmodium vinckei petteri infected in IOPS OF1 mouse assessed as reduction in parasitemia administered once daily via sc for 4 days. Type of assay: functional. The settings on record: 96 h.
In assay [3] the test system is Plasmodium vinckei petteri. As to the kind of experiment: Antimalarial activity against Plasmodium vinckei petteri infected in IOPS OF1 mouse assessed as reduction in parasitemia at 10 mg/kg, sc administered once daily for 4 days relative to control. Type of assay: functional. The arrangement: scale not given: the % may be the effect or the level left.
Assay [4] has as its system Leishmania major. In words: Antileishmanial activity against promastigote stage of Leishmania major MHOM/IL/81/Friedlin transformed from lymph node cultures of infected Balb/c mouse measured after 48 hrs by luminometry. Type of assay: functional, organism-based.
In assay [5] the test system is Leishmania major. As to the kind of experiment: Antileishmanial activity against […] measured after 48 hrs by luminometry. Type of assay: functional, organism-based.
Assay [6] deals with Leishmania donovani. In words: Antileishmanial activity against Leishmania donovani MHOM/SD/001S-2D promastigotes transformed from splenic cultures of infected Chester Beatty hamster measured after 48 hrs by CellTiter-Glo luminescent cell viability assay. Type of assay: functional, organism-based. (In general: ATP-based viability assays read luminescence as a measure of living cells.)

The subject of assay [7] is Toxoplasma gondii. In words: Antiparasitic activity against Toxoplasma gondii infected in Scottish Blackface ewes assessed as mortality at 16.8 to 27.9 mg administered daily for 10 days prior to parasitic infection (reference value: 55.2%). Type of assay: functional.
Assay [8] has as its system Leishmania donovani. In words: Antileishmanial activity against Leishmania donovani MHOM/SD/001S-2D […] measured after 48 hrs by CellTiter-Glo luminescent cell viability assay. Type of assay: functional, organism-based.
The test system of assay [9] is Cryptosporidium parvum. As to the kind of experiment: Antiparasitic activity against Cryptosporidium parvum infected in CB.17 SCID mouse assessed as faecal parasite load at 3 mg/kg, administered once daily for 3 days by OW50-FITC staining based flow cytometry relative to control. Type of assay: functional.
Assay [10] deals with Plasmodium falciparum. In words: Antiplasmodial activity against trophozoite stage of Plasmodium falciparum 3D7 measured after 48 hrs by [3H]-hypoxanthine incorporation assay. Type of assay: functional, organism-based.
In assay [11] the test system is Trypanosoma brucei. In words: Antitrypanosomal activity against bloodstream form of Trypanosoma brucei clone 427-221a measured after 72 hrs by microscopic analysis. Type of assay: functional.
The subject of assay [12] is Trypanosoma brucei. In words: Antitrypanosomal activity against bloodstream form of Trypanosoma brucei clone 427-221a measured after 72 hrs by resazurin dye based assay. Type of assay: functional. (The colour change of resazurin is a common sign of viable cells or microbes.)
The subject of assay [13] is Leishmania donovani. In words: Antileishmanial activity against Leishmania donovani MHOM/SD/00/1S-2D promastigotes by luminescence assay. Type of assay: functional, organism-based.
In assay [14] the test system is Schistosoma mansoni. In words: Antiparasitic activity against Schistosoma mansoni Puerto Rico PR-1 after 48 hrs by fluorescence based lactate release assay. Type of assay: functional, organism-based. The note with it: Puerto Rico PR-1, 48 h.
Assay [15] deals with Plasmodium berghei. In words: Antimalarial activity against Plasmodium berghei infected in po dosed mouse. Type of assay: functional.
Assay [16] concerns Eimeria tenella. As to the kind of experiment: Coccidiostat activity against Eimeria tenella infected in po dosed chicken. Type of assay: functional.
For assay [17], the system named is Plasmodium falciparum. As to the kind of experiment: Antimalarial activity against Plasmodium falciparum Nigerian infected in human red blood cells after 48 hrs by [3H]-hypoxanthine incorporation assay. Type of assay: functional, organism-based.
Assay [18] deals with Plasmodium chabaudi. As to the kind of experiment: Antiplasmodial activity against Plasmodium chabaudi infected in Swiss mouse assessed as reduction in parasitemia administered twice daily via ip for 4 days starting from 1.5 hrs post infection. Type of assay: functional.

Converted amounts (≈) assume the structure as drawn.

For the compound `CC[C@@]1([C@@H]2O[C@@H]([C@H]3O[C@@](O)(CO)[C@H](C)C[C@@H]3C)C[C@@H]2C)CC[C@H]([C@]2(C)CC[C@]3(C[C@H](O)[C@@H](C)[C@@H]([C@@H](C)[C@@H](OC)[C@@H](C)C(=O)O)O3)O2)O1`, the inhibition (in general, the change of the read-out against control, counted positive when it falls) at 0.144 µM in [1] was found to be 98%. Further, the ED50 in [2] turned out to be 1.1 mg/kg. In addition, the ED90 in assay [2] is 3.5 mg/kg. Also, the Activity is reported as 100% in assay [3] and 16.7% in assay [7]. For the same compound, the EC50 (usually the concentration at which the effect is half-maximal) worked out at 90 nM in assay [4], 380 nM in assay [5], 850 nM in [6] and 230 nM in [8]. As for `CO[C@@H]1[C@@H](OC)[C@H](C)[C@@](O)(CC(=O)O)O[C@H]1[C@H](C)[C@H]1O[C@@]2(CC[C@@](C)([C@H]3CC[C@@](C)([C@@H]4O[C@@H]([C@H]5O[C@](C)(O)[C@H](C)C[C@@H]5C)C[C@@H]4O[C@@H]4C[C@@H](OC)[C@@H](OC)[C@H](C)O4)O3)O2)C[C@H](O)[C@H]1C`, the Activity in [9] worked out at 96%. For the same compound, the EC50 in assay [10] came to 0.44 nM.

As to `CC[C@@H](C(=O)[C@@H](C)[C@@H](O)[C@H](C)[C@@H]1O[C@@H]([C@@H](CC)C(=O)OCC(F)(F)F)CC[C@@H]1C)[C@H]1O[C@]2(C=C[C@@H](O)[C@]3(CC[C@@](C)([C@H]4CC[C@](O)(CC)[C@H](C)O4)O3)O2)[C@H](C)C[C@@H]1C`, in [11], the GI50 (in general, the concentration giving 50% growth inhibition) was determined as 57 nM. Also, in assay [12], the MIC (commonly the lowest concentration that inhibits growth of the organism) was in the range of 0.1 to 1 µM (≈ 0.0833 to 0.833 µg/mL). `CC[C@@H](C(=O)[C@@H](C)[C@@H](O)[C@H](C)[C@@H]1O[C@@H]([C@@H](CC)C(=O)O)CC[C@@H]1C)[C@H]1O[C@]2(C=C[C@@H](O)[C@]3(CC[C@@](C)([C@H]4CC[C@](O)(CC)[C@H](C)O4)O3)O2)[C@H](C)C[C@@H]1C` [SALINOMYCIN]: a half-maximal response in assay [13] (EC50) required 4000 nM. Further, in assay [14], it took 32600 nM to reach half-maximal inhibition (IC50). For the compound `CC[C@@]1([C@@H]2O[C@@H]([C@H]3O[C@@](O)(COS(=O)(=O)c4ccc(C)cc4)[C@H](C)C[C@@H]3C)C[C@@H]2C)CC[C@H]([C@]2(C)CC[C@]3(C[C@H](O)[C@@H](C)[C@@H]([C@@H](C)[C@@H](OC)[C@@H](C)C(=O)O)O3)O2)O1`, in assay [15], the ED50 came out at 1.25 mg/kg. As to `CO[C@@H]1C[C@@H](C[C@H]2CC[C@H](C)[C@H]([C@@H](C)C(=O)O)O2)O[C@]2(O[C@](C)([C@H]3CC[C@@](C)([C@@H]4O[C@@H]([C@H]5O[C@@](O)(CO)[C@H](C)C[C@@H]5C)C[C@@H]4C)O3)C[C@H]2C)[C@@H]1C` [NIGERICIN], in assay [2], the ED50 was determined as 1.8 mg/kg and the ED90 turned out to be 4.6 mg/kg. The compound `CC[C@@]1([C@@H]2O[C@@H]([C@H]3O[C@@](O)(COC(=O)Nc4ccc(Br)cc4)[C@H](C)C[C@@H]3C)C[C@@H]2C)CC[C@H]([C@]2(C)CC[C@]3(C[C@H](O)[C@@H](C)[C@@H]([C@@H](C)[C@@H](OC)[C@@H](C)C(=O)[O-])O3)O2)O1.[Na+]` had an ED50 in assay [15] of 16 mg/kg. Regarding `CC[C@@]1([C@@H]2O[C@@H]([C@H]3O[C@@](O)(COC(=O)Nc4ccc(Oc5ccccc5)cc4)[C@H](C)C[C@@H]3C)C[C@@H]2C)CC[C@H]([C@]2(C)CC[C@]3(C[C@H](O)[C@@H](C)[C@@H]([C@@H](C)[C@@H](OC)[C@@H](C)C(=O)[O-])O3)O2)O1.[Na+]`, the ED50 in assay [15] was determined as 8 mg/kg.

As to `CC[C@@]1([C@@H]2O[C@@H]([C@H]3O[C@@](O)(COC(=O)Nc4ccc(I)cc4)[C@H](C)C[C@@H]3C)C[C@@H]2C)CC[C@H]([C@]2(C)CC[C@]3(C[C@H](O)[C@@H](C)[C@@H]([C@@H](C)[C@@H](OC)[C@@H](C)C(=O)[O-])O3)O2)O1.[Na+]`, in assay [15], the ED50 worked out at 5 mg/kg.

For the compound `CC[C@@]1([C@@H]2O[C@@H]([C@H]3O[C@@](O)(COC(=O)NCCc4ccccc4)[C@H](C)C[C@@H]3C)C[C@@H]2C)CC[C@H]([C@]2(C)CC[C@]3(C[C@H](O)[C@@H](C)[C@@H]([C@@H](C)[C@@H](OC)[C@@H](C)C(=O)[O-])O3)O2)O1.[Na+]`, in [16], the ED50 came out at 50 ppm. `CC[C@@]1([C@@H]2O[C@@H]([C@H]3O[C@@](O)(COC(=O)Nc4ccccc4)[C@H](C)C[C@@H]3C)C[C@@H]2C)CC[C@H]([C@]2(C)CC[C@]3(C[C@H](O)[C@@H](C)[C@@H]([C@@H](C)[C@@H](OC)[C@@H](C)C(=O)[O-])O3)O2)O1.[Na+]`: the ED50 in assay [15] worked out at 4 mg/kg. The compound `CC[C@@H](C(=O)O)[C@@H]1O[C@@H]([C@@H](C)[C@H](O)[C@H](C)C(=O)[C@H](CC)[C@H]2O[C@]3(C=C[C@@H](O)[C@]4(CC[C@@](C)([C@H]5CC[C@](O)(CC)[C@H](C)O5)O4)O3)[C@H](C)C[C@@H]2C)[C@@H](C)C[C@@H]1C` [NARASIN] yielded an EC50 in assay [13] of 2000 nM.

For `CC[C@@]1([C@@H]2O[C@@H]([C@H]3O[C@@](O)(COC(=O)Nc4ccc(Cl)cc4)[C@H](C)C[C@@H]3C)C[C@@H]2C)CC[C@H]([C@]2(C)CC[C@]3(C[C@H](O)[C@@H](C)[C@@H]([C@@H](C)[C@@H](OC)[C@@H](C)C(=O)[O-])O3)O2)O1.[Na+]`, in assay [15], the ED50 was determined as 2 mg/kg. In turn, `CC[C@@]1([C@@H]2O[C@@H]([C@H]3O[C@@]4(COC(=O)O4)[C@H](C)C[C@@H]3C)C[C@@H]2C)CC[C@H]([C@]2(C)CC[C@]3(C[C@H](O)[C@@H](C)[C@@H]([C@@H](C)[C@@H](OC)[C@@H](C)C(=O)O)O3)O2)O1` showed an ED50 in assay [15] of 0.75 mg/kg. Consider `CCCCNC(=O)[C@H](CC)[C@H]1CC[C@H](C)[C@H]([C@@H](C)[C@H](O)[C@H](C)C(=O)[C@H](CC)[C@H]2O[C@]3(C=C[C@@H](O)[C@]4(CC[C@@](C)([C@H]5CC[C@](O)(CC)[C@H](C)O5)O4)O3)[C@H](C)C[C@@H]2C)O1`, for which the GI50 in [11] was determined as 40 nM. This compound came in with an MIC in [12] of 0.1 µM (≈ 0.0806 µg/mL). Take `CC[C@@]1([C@@H]2O[C@@H]([C@H]3O[C@@](O)(COC(=O)Nc4ccc(F)cc4)[C@H](C)C[C@@H]3C)C[C@@H]2C)CC[C@H]([C@]2(C)CC[C@]3(C[C@H](O)[C@@H](C)[C@@H]([C@@H](C)[C@@H](OC)[C@@H](C)C(=O)[O-])O3)O2)O1.[Na+]`: the ED50 in [16] is given as 70 ppm. In assay [16], `CC[C@@]1([C@@H]2O[C@@H]([C@H]3O[C@@](O)(COC(=O)Nc4ccc(C)cc4)[C@H](C)C[C@@H]3C)C[C@@H]2C)CC[C@H]([C@]2(C)CC[C@]3(C[C@H](O)[C@@H](C)[C@@H]([C@@H](C)[C@@H](OC)[C@@H](C)C(=O)[O-])O3)O2)O1.[Na+]` yielded an ED50 of 70 ppm. Regarding `CC[C@@H](C(=O)[C@@H](C)[C@@H](O)[C@H](C)CCc1c(Br)cc(C)c(O)c1C(=O)[O-])[C@H]1O[C@](CC)([C@H]2CC[C@](O)(CC)[C@H](C)O2)C[C@@H]1C.[Na+]`, the midpoint of inhibition in assay [17], the IC50, lay at 0.069 µg/mL. Also, in assay [18], the ED50 was found to be 1.4 mg/kg. With `CC[C@@]1([C@@H]2O[C@@H]([C@H]3O[C@@](O)(COC(=O)Nc4ccc([N+](=O)[O-])cc4)[C@H](C)C[C@@H]3C)C[C@@H]2C)CC[C@H]([C@]2(C)CC[C@]3(C[C@H](O)[C@@H](C)[C@@H]([C@@H](C)[C@@H](OC)[C@@H](C)C(=O)[O-])O3)O2)O1.[Na+]`, the ED50 in [15] came out at 5 mg/kg.
